# Reference: patent US20190211397A1, “INHIBITORS OF GPR132 FOR USE IN PREVENTING AND/OR TREATING CHEMOTHERAPY-INDUCED NEUROPATHIC PAIN” (Fraunhofer-Gesellschaft zur Foerderung der angewandten …, priority 2016, published 2019)
# Entries after “also recorded” stand apart in the source; their conditions may differ.
# Assays:
# TRPM8 = target: T1, TRPM8 (Mus musculus, UniProt Q8R4D5); assay: Calcium imaging of DRG neurons: TRPM8 sensitization (menthol); assay type: cell-based, mice; conditions: activated with menthol 100 μM
# T1 construct: endogenous in cells; host or cells: primary murine dorsal root ganglion (DRG) neurons
# Method: (§1) DRG primary cultures were prepared as described previously (Brenneis et al., 2011 b). Briefly, twenty to thirty murine dorsal roots ganglia (DRGs) were dissected from spinal segments and transferred directly into ice-cold Hanks' balanced salt solution with CaCI2 and MgCI2 (lnvitrogen, Carlsbad, Calif., USA). The DRGs were than incubated with Neurobasal Medium (lnvitrogen, Carlsbad, Calif., USA) containing 500 U/ml collagenase (Sigma, Deisenhofen, Germany) and 2.5 U/ml dispase II (Roche, Mannheim, Germany) for 75 mins at 37° C. After removal of the collagenase/dispase-solution cells were washed three times with medium containing 10% FCS, penicillin/streptomycin/gentamycin (lnvitrogen, Carlsbad, Calif., USA) and incubated in 0.05% trypsin for 10 min at 37° C. After two washing steps, the cells were mechanically dissociated with a 1 ml pipette and plated on Poly-L-lysine (Sigma) coated coverslips. […]
# (§2) Calcium-imaging experiments were performed with a Leica calcium-imaging setup, consisting of a Leica DMI 4000 b inverted microscope equipped with a DFC360 FX (CCD) camera, Fura-2 filters, and an N-Plan 10×/0.25 Ph1 objective (all from Leica), was used. […] For each experiment, an area with large cell numbers 24 h after preparation (see DRG primary cultures) was chosen and 40-110 cells were monitored simultaneously. […]
# TRPA1 = target: T2, TRPA1 (Mus musculus, UniProt Q8BLA8); assay: Calcium imaging of DRG neurons: TRPA1 sensitization (allyl isothiocyanate); assay type: cell-based, mice; conditions: activated with AITC 50 μM
# T2 construct: endogenous in cells; host or cells: primary murine dorsal root ganglion (DRG) neurons
# Method: as §1, §2
# TRPV1 [1] = assay: Calcium imaging of DRG neurons: TRPV1 sensitization (two capsaicin stimuli, Δratio); assay type: cell-based, mice
# Method: DRG primary cultures were prepared as described previously (Brenneis et al., 2011 b). Briefly, twenty to thirty murine dorsal roots ganglia (DRGs) were dissected from spinal segments and transferred directly into ice-cold Hanks' balanced salt solution with CaCI2 and MgCI2 (lnvitrogen, Carlsbad, Calif., USA). The DRGs were than incubated with Neurobasal Medium (lnvitrogen, Carlsbad, Calif., USA) containing 500 U/ml collagenase (Sigma, Deisenhofen, Germany) and 2.5 U/ml dispase II (Roche, Mannheim, Germany) for 75 mins at 37° C. After removal of the collagenase/dispase-solution cells were washed three times with medium containing 10% FCS, penicillin/streptomycin/gentamycin (lnvitrogen, Carlsbad, Calif., USA) and incubated in 0.05% trypsin for 10 min at 37° C. After two washing steps, the cells were mechanically dissociated with a 1 ml pipette and plated on Poly-L-lysine (Sigma) coated coverslips. After incubation at 37° C. for 2 h, Neurobasal Medium containing glutamine (2 mm), penicillin (100 U/ml), streptomycin (100 μg/ml), B-27 and gentamicin (50 μg/ml) was added to the cells and incubated overnight. The neurons were used for Calcium imaging the next day.
# Calcium-imaging experiments were performed with a Leica calcium-imaging setup, consisting of a Leica DMI 4000 b inverted microscope equipped with a DFC360 FX (CCD) camera, Fura-2 filters, and an N-Plan 10×/0.25 Ph1 objective (all from Leica), was used. Images were taken every 2 s and were processed with the LAS AF-software (Leica). For each experiment, an area with large cell numbers 24 h after preparation (see DRG primary cultures) was chosen and 40-110 cells were monitored simultaneously. Cells were loaded with 5 μM fura-2-AM-ester (Biotium), incubated for 45-60 min at 37° C. and washed with ringer solution (145 mM NaCI, 1.25 mM CaCl2, 1 mM MgCl2, 5 mM KCI, 10 mM D-glucose, and 10 mM HEPES, adjusted to pH 7.3). Baseline measurements were performed with ringer solution at a flow rate of 1-2 ml/min at room temperature. For the activation of TRPV1 we used a solution of 200 nM capsaicin (Sigma), for TRPA1 activation 50 μM allyl isothiocyanate (AITC, Fluka Analytic) and for TRPM8 100 μM L-menthol (Sigma) dissolved in ringer solution. For TRP-channel sensitization, cells were incubated for 2 mins with different concentrations (50 nM-1000 nM) of (±) 9-HODE (Cayman) or (±) 13-HODE (Cayman) before the second stimulus took place. For control stimulations, the corresponding volume of DMSO (Sigma) was mixed in ringer solution and applied with the same flow rate. 10 μM of the PKA inhibitor H89 (Tocris) or 1 μM of the PKC inhibitor GF1 09203X (Tocris) was co-incubated with fura-2 for 45 mins. As positive control for PKA activation 40 iJM 8-bromo-cAMP (Cayman) and for PKC activation 500 nM bradykinin (Cayman) was used. At the end of each measurement, 50 mM KCl was applied to identify neurons.
# TRPV1 [2] = assay: Whole-cell voltage clamp of DRG neurons, capsaicin-induced inward current; assay type: cell-based, mice; conditions: DRG neurons pre-treated with 9-HODE (200 nM, 3 min), capsaicin 1 μM
# Method: All recordings were carried out at room temperature within 48 hour of plating DRG neurons. Whole-cell voltage clamp recordings were made with an Axopatch 200A amplifier (Molecular Devices) and patch pipettes with resistances of 2-3 MΩ. Pipette solution was 5 mM NaCl, 140 mM KCl, 0.5 mM CaCl2, 2 mM MgCl2, 5 mM EGTA, 10 mM HEPES, and 3 mM Na2ATP, pH 7.2, adjusted with NaOH. The external solution was 140 mM NaCl, 5 mM KCl, 2 mM CaCl2, 2 mM MgCl2, 10 mM HEPES, and 10 mM D-glucose, pH 7.4, adjusted with NaOH (Sigma). Command protocols were generated and data was digitized with a Digidata 1440A A/D interface with pCLAMP10 software. We used gravity perfusion system connected with perfusion pencil (AutoMate Scientific) to externally apply 9-HODE or capsaicin to the cells.
# DRG neurons = assay: Neuronal CGRP release from DRG neurons; assay type: cell-based, mice; conditions: 9-HODE 1 μM with capsaicin 400 nM, 10 min
# Method: For the determination of neuronal calcitonin gene-related peptide (CGRP) release, dorsal root ganglia (DRGs) neurons were isolated from mice as previously described (Brenneis et al., 2011 a). Briefly, DRG cultures were stimulated for 10 m in with 1 μM (±) 9-HODE (Cayman) alone or in combination with 400 nM capsaicin (Sigma). Cultures supplemented with capsaicin alone served as control. CGRP concentrations in supernatants were analysed utilizing the rat CGRP Enzyme ImmunoAssay Kit (SPI-Bio, Montigny, France) according to the manufacturer's instructions. Absorption was measured with the help of the Spectra Max 250 (Molecular Devices, lsmaning, Germany)
# G2A receptor (GPR132) [3] = target: T3, G2A receptor (GPR132) (Homo sapiens, UniProt Q9UNW8); assay: Calcium in HEK cells transfected with G2A (FURA-2); assay type: cell-based; design: expressed in transfected cells; conditions: HEK cells overexpressing G2A, 9-HODE 1 μM
# T3 sequence (Q9UNW8 1-380): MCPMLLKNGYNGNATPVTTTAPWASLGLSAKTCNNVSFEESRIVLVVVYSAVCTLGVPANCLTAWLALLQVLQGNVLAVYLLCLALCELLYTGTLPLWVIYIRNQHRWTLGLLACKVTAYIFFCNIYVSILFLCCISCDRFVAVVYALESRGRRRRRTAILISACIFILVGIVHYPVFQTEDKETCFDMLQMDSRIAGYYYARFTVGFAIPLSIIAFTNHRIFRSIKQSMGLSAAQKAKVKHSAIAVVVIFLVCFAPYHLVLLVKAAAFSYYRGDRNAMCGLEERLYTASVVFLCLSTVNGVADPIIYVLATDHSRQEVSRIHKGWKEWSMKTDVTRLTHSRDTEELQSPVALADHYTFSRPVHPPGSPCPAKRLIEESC
# G2A receptor (GPR132) [4] = target: T3, G2A receptor (GPR132); conditions: heterologous expression system; cited from earlier work
# G2A receptor (GPR132) [5] = target: T3, G2A receptor (GPR132); assay: Calcium flux in COS-1 cells cotransfected with aequorin and G2A; assay type: cell-based; design: expressed in transfected cells; conditions: COS-1 cells transfected with GPR132 and aequorin, 10 nM-10 μM
# Method: For studies of heterologously expressed G2A receptor, COS-1 cells were seeded in white walls-clear bottom 96-well plates and transfected with a plasmid encoding a calcium-sensitive bioluminescent fusion protein between aequorin and GFP (Baubet et al., 2000) together with plasmid containing cDNA for G2A or control DNA (empty vector, mock) at a concentration of 50 ng/well by using FuGENE 6 reagent (Promega) following manufacturer's instructions. Forty eight hours later, cells were loaded with 5 μM coelenterazine h (Invitrogen) in HBSS containing 1.8 mM CaCl2 and 10 mM glucose for 2 h at 37° C. Measurements were performed by using a luminometric plate reader (Flexstation 3). The area under each calcium transient was calculated by using SoftMaxPro software and expressed as area under the curve (AUC).
# T2 sequence (Q8BLA8 whole entry): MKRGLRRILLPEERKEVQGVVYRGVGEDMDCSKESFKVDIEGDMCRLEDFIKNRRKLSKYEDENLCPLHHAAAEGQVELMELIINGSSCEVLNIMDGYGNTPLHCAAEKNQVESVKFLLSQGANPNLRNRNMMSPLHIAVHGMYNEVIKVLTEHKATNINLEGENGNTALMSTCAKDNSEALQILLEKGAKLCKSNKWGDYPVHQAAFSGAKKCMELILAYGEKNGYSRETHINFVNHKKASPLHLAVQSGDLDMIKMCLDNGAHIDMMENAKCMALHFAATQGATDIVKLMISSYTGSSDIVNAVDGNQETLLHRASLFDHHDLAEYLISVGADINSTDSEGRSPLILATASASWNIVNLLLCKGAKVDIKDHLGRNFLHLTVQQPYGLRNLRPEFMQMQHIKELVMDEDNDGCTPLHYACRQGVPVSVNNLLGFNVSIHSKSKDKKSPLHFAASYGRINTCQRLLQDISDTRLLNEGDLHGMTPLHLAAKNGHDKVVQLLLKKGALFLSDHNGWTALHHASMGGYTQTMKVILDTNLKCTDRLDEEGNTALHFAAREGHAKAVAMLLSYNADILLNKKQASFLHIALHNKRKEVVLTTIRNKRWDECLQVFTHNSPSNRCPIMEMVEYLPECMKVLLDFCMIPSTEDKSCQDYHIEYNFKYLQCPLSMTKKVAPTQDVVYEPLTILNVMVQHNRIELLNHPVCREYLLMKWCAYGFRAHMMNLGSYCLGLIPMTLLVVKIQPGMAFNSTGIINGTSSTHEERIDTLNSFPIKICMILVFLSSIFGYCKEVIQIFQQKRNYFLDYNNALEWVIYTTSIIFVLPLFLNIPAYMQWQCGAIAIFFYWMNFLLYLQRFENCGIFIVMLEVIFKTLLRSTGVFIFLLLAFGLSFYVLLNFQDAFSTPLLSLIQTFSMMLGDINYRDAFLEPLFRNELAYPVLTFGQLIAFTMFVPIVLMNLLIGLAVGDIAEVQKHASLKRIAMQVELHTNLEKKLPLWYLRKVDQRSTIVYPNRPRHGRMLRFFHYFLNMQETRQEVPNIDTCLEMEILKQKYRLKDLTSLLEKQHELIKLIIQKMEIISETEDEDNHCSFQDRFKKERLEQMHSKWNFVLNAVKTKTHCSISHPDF
# T1 sequence (Q8R4D5 whole entry): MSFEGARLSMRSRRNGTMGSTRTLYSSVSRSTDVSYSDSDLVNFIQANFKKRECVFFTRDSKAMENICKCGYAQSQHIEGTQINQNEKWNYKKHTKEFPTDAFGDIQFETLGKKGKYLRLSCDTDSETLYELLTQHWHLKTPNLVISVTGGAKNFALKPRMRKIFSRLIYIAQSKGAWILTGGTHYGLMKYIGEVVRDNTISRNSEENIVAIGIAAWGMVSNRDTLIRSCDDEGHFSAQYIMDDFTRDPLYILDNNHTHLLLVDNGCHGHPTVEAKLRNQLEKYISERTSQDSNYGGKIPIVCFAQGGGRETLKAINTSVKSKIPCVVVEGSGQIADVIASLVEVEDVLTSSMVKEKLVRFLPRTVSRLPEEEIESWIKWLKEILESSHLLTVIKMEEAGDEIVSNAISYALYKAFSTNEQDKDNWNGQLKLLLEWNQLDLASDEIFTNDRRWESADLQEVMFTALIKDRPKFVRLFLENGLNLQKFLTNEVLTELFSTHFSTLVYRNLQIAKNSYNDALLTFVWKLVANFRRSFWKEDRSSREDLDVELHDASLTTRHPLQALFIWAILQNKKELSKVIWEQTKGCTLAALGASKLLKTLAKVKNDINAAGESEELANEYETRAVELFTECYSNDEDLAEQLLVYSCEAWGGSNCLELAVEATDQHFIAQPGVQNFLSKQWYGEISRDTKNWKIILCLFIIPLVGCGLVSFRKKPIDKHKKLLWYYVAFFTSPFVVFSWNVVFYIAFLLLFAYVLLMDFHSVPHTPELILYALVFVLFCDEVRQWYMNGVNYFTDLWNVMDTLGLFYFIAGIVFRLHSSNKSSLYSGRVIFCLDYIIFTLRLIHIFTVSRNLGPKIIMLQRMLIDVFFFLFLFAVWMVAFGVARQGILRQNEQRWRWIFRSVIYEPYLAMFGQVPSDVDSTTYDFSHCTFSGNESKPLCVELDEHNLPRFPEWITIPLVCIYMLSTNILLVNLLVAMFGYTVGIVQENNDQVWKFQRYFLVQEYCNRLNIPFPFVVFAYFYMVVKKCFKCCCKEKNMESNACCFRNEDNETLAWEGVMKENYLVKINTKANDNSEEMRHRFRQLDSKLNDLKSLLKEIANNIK
smiles,measurement,setting,value
"CCCCC/C=C\C=C\C(O)CCCCCCCC(=O)O (stereo not shown) [9-HODE, 9-hydroxy-10E,12Z-octadecadienoic acid]",sensitizing effects for TRPM8,TRPM8,no sensitizing effects
same,sensitizing effects for TRPA1,TRPA1,no sensitizing effects
same,9-HODE-induced TRPV1 sensitization in G2A-deficient DRG neurons,"TRPV1 [1]; DRG cultures of G2A-deficient mice, 9-HODE 200 nM 120 s",not in G2A-deficient mice; also recorded: absent
same,sensitization of TRPV1 (Δratio of first and second capsaicin stimulus),"TRPV1 [1]; DRG neurons, lipid incubated 2 minutes before second capsaicin stimulus, 0 to 1000 nM",dose-dependently sensitizes the TRPV1 channel; also recorded: concentration-dependently induced a sensitization of TRPV1
same,calcium flux of second vs first capsaicin stimulus (Δratio),"TRPV1 [1]; wildtype DRG neurons, lipid 200 nM 120 s, capsaicin 200 nM 30 s",increased calcium flux compared to the first stimulus
same,capsaicin-induced inward current,TRPV1 [2],significantly increased
same,capsaicin-dependent CGRP release,DRG neurons,increased the capsaicin-dependent CGRP release significantly
same,intracellular calcium concentrations,G2A receptor (GPR132) [3],caused calcium-release; also recorded: increased intracellular calcium concentrations
same,activation of the G2A receptor,G2A receptor (GPR132) [4],can activate the G2A receptor
same,calcium release (bioluminescence of aequorin),G2A receptor (GPR132) [5],caused calcium release in a concentration-dependent manner
